One assay deals with HL-60. Description: Cytotoxicity against human HL-60 cells assessed as reduction in cell viability at 20 uM incubated for 3 days by CCK-8 assay. The format is functional, cell-based. The conditions noted are these: time 3.0 day. In general terms: Tetrazolium assays rely on reduction of a dye to a coloured formazan, in cell work by metabolically active cells.
Another assay has as its system A549. Description: Cytotoxicity against human A549 cells assessed as reduction in cell viability at 20 uM incubated for 3 days by CCK-8 assay. In kind it is functional, cell-based. The conditions noted are these: time 3.0 day.
Assay [1] has as its target T1, Tyrosine-protein phosphatase non-receptor type 1 (Homo sapiens) (UniProt P18031).
T1 sequence (whole entry): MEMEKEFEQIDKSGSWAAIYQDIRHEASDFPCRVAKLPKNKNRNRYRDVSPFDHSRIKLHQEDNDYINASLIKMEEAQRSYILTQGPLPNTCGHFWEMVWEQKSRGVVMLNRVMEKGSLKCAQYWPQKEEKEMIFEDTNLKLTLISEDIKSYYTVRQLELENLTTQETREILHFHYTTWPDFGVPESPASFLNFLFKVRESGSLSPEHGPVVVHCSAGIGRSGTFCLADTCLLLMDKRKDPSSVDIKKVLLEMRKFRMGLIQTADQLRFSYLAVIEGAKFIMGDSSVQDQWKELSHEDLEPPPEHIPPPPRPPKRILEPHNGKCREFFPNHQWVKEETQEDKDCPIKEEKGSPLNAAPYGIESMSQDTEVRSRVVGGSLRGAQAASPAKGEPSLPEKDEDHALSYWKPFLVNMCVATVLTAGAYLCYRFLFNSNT
Description: Inhibition of recombinant PTP1B (unknown origin) using pNPP as substrate at 20 uM relative to control.

Assay [2] concerns the target T2, Tyrosine-protein phosphatase non-receptor type 1 (Homo sapiens, UniProt P18031).
T2 sequence (P18031 whole entry): T1 sequence (whole entry)
Description: Inhibition of recombinant PTP1B (unknown origin) using pNPP as substrate relative to control.

The source made the active and inactive calls. No cut-off for these calls is given here.

For the molecule `C=C(C)C(=O)CC[C@@H](C)[C@H]1C2=C(CNC2=O)[C@H]2C[C@H]2[C@H](C)C[C@H]1OC(C)=O`, the outcome with HL-60 and in the assay on A549 was inactive. The inhibition (usually the share of the control response that was lost under treatment) in assay [1] came out at 47%.

For `CC(C)=CCC[C@@H](C)[C@H]1C2=C(C(=O)OC2)[C@H]2C[C@H]2[C@H](C)C[C@H]1O`, the IC50 (commonly the concentration at which inhibition is half-maximal) in assay [2] was found to be 7.3 µM. Further, the result with HL-60 and with A549 was inactive. The inhibition in assay [1] was determined as 86%.

With `CC(=O)O[C@@H]1C[C@@H](C)[C@@H]2C[C@@H]2C2=C(CNC2=O)[C@@H]1[C@H](C)CCC=C(C)C`, in assay [2], the concentration for half-maximal inhibition (IC50) was determined as 13 µM. The outcome with HL-60 and in the assay on A549 was inactive. Further, the inhibition in assay [1] stood at 73%.

Turning to `CC(=O)O[C@@H]1C[C@@H](C)[C@@H]2C[C@@H]2C2=C(C(=O)NC2)[C@@H]1[C@H](C)CCC=C(C)C`, in assay [2], the IC50 was determined as 19 µM. In addition, the result with HL-60 and with A549 was inactive. For the same molecule, the inhibition in assay [1] amounted to 52%.

As to `CCO[C@@H]1C/C=C(\C)CC[C@@H]([C@H](C)CCC=C(C)C)C2=C1C(=O)N[C@@H]2O`, the result with HL-60 and in the assay on A549 was inactive. Besides, the inhibition in assay [1] is 38%.

Consider `CC(C)=CCC[C@@H](C)[C@H]1C2=C(C(=O)NC2)[C@H]2C[C@H]2[C@H](C)C[C@H]1O`, for which the result in the assay with HL-60 and with A549 was inactive. For the same molecule, in assay [1], the inhibition worked out at 40%.

On to `CCO[C@@H]1C/C=C(\C)CC[C@@H]([C@H](C)CCC=C(C)C)C2=C1C(=O)N[C@H]2O`, for which the IC50 in assay [2] amounted to 9.5 µM. Also, the outcome in the assay on HL-60 and in the assay on A549 was inactive. The inhibition in assay [1] was 81%.

For the origin of these results see ChEMBL document CHEMBL5357001, “Coriaceumins A-D, the First Nitrogen-Containing Crenulide Diterpenoids from the Brown Alga Dictyota coriacea Collected in the East China Sea” (J Nat Prod, 2024).
